Laboratory results reported in US4547371A, “Substituted cephalosporin sulfones as anti-inflammatory and anti-degenerative agents” (Merck & Co., Inc., priority 1983, dated 1985).

Target: T1, Human Polymorphonuclear Leukocyte Elastase (Homo sapiens, UniProt P08246)
T1 construct: Crude extract of human polymorphonuclear leukocytes (PMN) containing elastase activity; endogenous in cells; host or cells: human polymorphonuclear leukocytes (crude extract)
T1 sequence (P08246 30-247 limits assumed): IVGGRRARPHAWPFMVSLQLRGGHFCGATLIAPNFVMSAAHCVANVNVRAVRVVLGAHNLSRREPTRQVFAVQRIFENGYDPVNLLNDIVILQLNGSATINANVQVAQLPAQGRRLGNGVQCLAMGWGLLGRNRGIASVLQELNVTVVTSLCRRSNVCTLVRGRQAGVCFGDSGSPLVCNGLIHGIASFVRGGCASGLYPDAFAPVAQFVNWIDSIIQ
Test: Inhibition of human polymorphonuclear leukocyte elastase via hydrolysis of N-t-Boc-alanyl-alanyl-prolyl-alanine-p-nitroanilide
Type: biochemical
Details: effective dosage for 50% inhibition of the enzyme activity 2 minutes after zero time; crude human PMN extract, Boc-AAPAN substrate, pH 7.5, 410 mμ; read-out: ED50 (the source's name) (converted)
Experimental: Protocol--Enzyme Assays for the Inhibition of Human Polymorphonuclear Leukocyte Elastase Via Hydrolysis of N-t-Boc-alanyl-alanyl-prolylalanine-p-nitroanilide
0.05M TES (N-tris[hydroxymethyl]methyl-2-amino-ethanesulfonic acid) Buffer, pH 7.5.
0.2 mM N-t-Boc-alanyl-alanyl-prolyl-alanine-p-nitroanilide (Boc-AAPAN).
To prepare substrate, the solid (m.w. 550) was first dissolved in 10.0 ml DMSO. Buffer at pH 7.5 was then added to a final volume of 100 ml.
Crude extract of human polymorphonuclear leukocytes (PMN) containing elastase activity.
Inhibitors (cephalosporin sulfone esters) to be tested dissolved in DMSO just before use.
To 1.0 ml of 0.2 mM Boc-AAPAN in a cuvette, 0.01-0.1 ml of DMSO with or without inhibitor was added. After mixing, a measurement was taken at 410 mμ to detect any spontaneous hydrolysis due to presence of test compound. 0.05 Milliliters of PMN extract was then added and the ΔOD /min at 410 mμ was measured and recorded. Beckman model 35 spectrophotometer was used.
Results were reported as ED50, i.e., effective dosage in micrograms per milliliter (μg/ml) for 50% inhibition of the enzyme activity 2 minutes after zero time.
The elastase activity in the crude PMN extract may vary from one preparation to another. A control of each new batch is run, and the volume added in the assay procedure is adjusted according to activity.

| IC50 | Compound |
| --- | --- |
| 663 nM | COC(=O)N[C@H]1C(=O)N2C(C(=O)OCc3ccccc3)=C(COC(C)=O)CS(=O)(=O)[C@H]12 [NHCOOCH3 / CH2 OCOCH3 / OCH2 .phi., benzyl 3-acetyloxymethyl-7α-methoxycarbonylamino-8-oxo-5-thia-1-azabicyclo[4.2.0]oct-2-ene-2-carboxylate-5,5-dioxide] |
| 1770 nM | CC(C)(C)OC(=O)C1=C(C(F)(F)F)CS(=O)(=O)[C@@H]2[C@@H](NC(=O)C(F)(F)F)C(=O)N12 (relative stereo) [CF3 CONH / CF3 / OtBu, t-Butyl 3-trifluoromethyl-7α-trifluoromethylcarbonylamino-8-oxo-5-thia-1-azabicyclo[4.2.0]oct-2-ene-2-carboxylate-5,5-dioxide] |
| 81.6 nM | CC(=O)OCC1=C(C(=O)OCc2ccccc2)N2C(=O)[C@H](NC(=O)C(F)(F)F)[C@H]2S(=O)(=O)C1 [NHCOCF3 / CH2 OCOCH3 / OCH2 .phi., Benzyl 3-acetyloxymethyl-7α-trifluoromethylcarbonylamino-8-oxo-5-thia-1-azabicyclo[4.2.0]oct-2-ene-2-carboxylate-5,5-dioxide] |
| 61.7 nM | O=C(OCc1ccccc1)C1=C(C(F)(F)F)CS(=O)(=O)[C@@H]2[C@@H](NC(=O)C(F)(F)F)C(=O)N12 (relative stereo) [CF3 CONH / CF3 / OCH2 .phi., Benzyl 3-trifluoromethyl-7α-trifluoromethylcarbonylamino-8-oxo-5-thia-1-azabicyclo[4.2.0]oct-2-ene-2-carboxylate-5,5-dioxide] |
